# Laboratory results taken from ChEMBL document CHEMBL3826945, “Discovery of novel dihydrobenzofuran cyclopropane carboxylic acid based calcium sensing receptor antagonists for the treatment of osteoporosis” (Bioorg Med Chem Lett, 2016).
# Calls of active or inactive are those of the source. No cut-off for these calls is given here.
# Legend:
# [1] = molecular target: T1, Extracellular calcium-sensing receptor (Homo sapiens, UniProt P41180); assay: Antagonist activity at calcium sensing receptor (unknown origin) by cell based FLIPR assay; type: functional
# T1 sequence (P41180 whole entry): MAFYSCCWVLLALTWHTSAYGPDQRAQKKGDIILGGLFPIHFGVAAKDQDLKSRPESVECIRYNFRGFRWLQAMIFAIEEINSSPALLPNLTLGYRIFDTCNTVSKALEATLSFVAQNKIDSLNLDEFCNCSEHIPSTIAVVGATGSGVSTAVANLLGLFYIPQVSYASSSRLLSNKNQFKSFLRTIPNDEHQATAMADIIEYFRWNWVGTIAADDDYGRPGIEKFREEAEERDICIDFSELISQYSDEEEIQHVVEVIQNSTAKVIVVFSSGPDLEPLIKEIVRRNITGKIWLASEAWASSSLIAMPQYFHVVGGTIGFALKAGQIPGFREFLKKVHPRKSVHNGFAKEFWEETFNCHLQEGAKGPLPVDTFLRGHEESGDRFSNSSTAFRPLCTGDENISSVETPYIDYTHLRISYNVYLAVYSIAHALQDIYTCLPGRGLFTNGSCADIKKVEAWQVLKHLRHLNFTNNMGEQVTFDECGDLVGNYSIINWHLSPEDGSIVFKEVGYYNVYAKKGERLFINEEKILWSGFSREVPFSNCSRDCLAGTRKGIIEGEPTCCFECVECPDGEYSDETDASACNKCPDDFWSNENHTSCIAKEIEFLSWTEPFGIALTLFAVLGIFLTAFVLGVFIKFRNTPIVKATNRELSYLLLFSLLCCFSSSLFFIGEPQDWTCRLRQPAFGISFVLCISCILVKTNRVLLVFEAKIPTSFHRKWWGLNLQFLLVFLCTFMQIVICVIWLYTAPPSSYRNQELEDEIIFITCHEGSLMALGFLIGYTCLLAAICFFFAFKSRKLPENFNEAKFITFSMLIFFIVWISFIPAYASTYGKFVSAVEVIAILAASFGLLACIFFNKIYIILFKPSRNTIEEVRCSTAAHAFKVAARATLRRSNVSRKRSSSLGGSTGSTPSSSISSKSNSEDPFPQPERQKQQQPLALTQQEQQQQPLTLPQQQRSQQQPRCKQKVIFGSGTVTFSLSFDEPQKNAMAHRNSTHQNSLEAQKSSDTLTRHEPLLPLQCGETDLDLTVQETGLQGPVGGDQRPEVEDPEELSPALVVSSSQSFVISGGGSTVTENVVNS
# [2] = Clearance in Sprague-Dawley rat plasma at 2 mg/kg, iv or 5 mg/kg, po; type: ADME, organism-based
# [3] = Oral bioavailability in Sprague-Dawley rat at 5 mg/kg; type: ADME, organism-based; details: in vivo
# [4] = Cmax in Sprague-Dawley rat at 2 mg/kg, iv or 5 mg/kg, po; type: ADME, organism-based; details: in vivo
# [5] = Half life in Sprague-Dawley rat at 2 mg/kg, iv or 5 mg/kg, po; type: ADME, organism-based; details: in vivo
# [6] = Tmax in Sprague-Dawley rat at 2 mg/kg, iv or 5 mg/kg, po; type: ADME, organism-based; details: in vivo
# Rattus norvegicus [7] = assay: Stimulation of parathyroid hormone release in po dosed overnight fasted Sprague-Dawley rat serum after 7 days by ELISA; type: functional, organism-based
# Rattus norvegicus [8] = assay: Stimulation of parathyroid hormone release in overnight fasted Sprague-Dawley rat serum at 30 mg/kg, po measured within 1 hour by ELISA relative to vehicle treated control; type: functional
# Rattus norvegicus [9] = assay: Stimulation of parathyroid hormone release in overnight fasted Sprague-Dawley rat serum at 30 mg/kg, po measured after 2 hrs by ELISA; type: functional, organism-based
SMILES,IC50 [1] [nM],further results
Cc1ccc([C@@H](C)OC[C@H](O)CNC(C)(C)Cc2ccc3ccccc3c2)c2c1O[C@H]1[C@H](C(=O)O)[C@@H]21,21.6,
COc1ccc(CC(C)(C)NC[C@@H](O)CO[C@H](C)c2ccc(C)c3c2[C@@H]2[C@H](O3)[C@H]2C(=O)O)c(Cl)c1,19.6,clearance [2]: 41 mL/min/kg; bioavailability [3]: 16.5%; Cmax [4]: 300 nM; half-life [5]: 2.9 h
Cc1ccc(C(C)OC[C@H](O)CNC(C)(C)CC2Cc3ccccc3C2)c2c1OC1C(C(=O)O)C21 (stereo partly specified),117,
Cc1ccc(C(C)OC[C@H](O)CNC(C)(C)Cc2ccc(Cl)c(F)c2)c2c1OC1C(C(=O)O)C21 (stereo partly specified),203,
CSc1ccc(CC(C)(C)NC[C@@H](O)CO[C@H](C)c2ccc(C)c3c2[C@@H]2[C@H](O3)[C@H]2C(=O)O)cc1F,27.6,clearance [2]: 40.2 mL/min/kg; Tmax [6]: < 1 h; Activity (Rattus norvegicus [7]): Dose-dependent effect; fold change (FC) (Rattus norvegicus [8]): 3; Activity (Rattus norvegicus [9]): inactive; bioavailability [3]: 6.9%; Cmax [4]: 170 nM; half-life [5]: 1.9 h
Cc1ccc([C@@H](C)OC[C@H](O)CNC(C)(C)Cc2ccc3ccccc3c2)c2c1O[C@@H]1[C@@H](C(=O)O)[C@H]21,7.45,
Cc1ccc([C@@H](C)OC[C@H](O)CNC(C)(C)CCSc2ccccc2)c2c1O[C@@H]1[C@@H](C(=O)O)[C@H]21,50.8,
Cc1ccc(C(C)OC[C@H](O)CNC(C)(C)Cc2ccc3ccccc3c2)c2c1OC1C(C(=O)O)C21 (stereo partly specified),64.3,
Cc1ccc([C@@H](C)OC[C@H](O)CNC(C)(C)Cc2ccc3c(c2)CCS3(=O)=O)c2c1O[C@@H]1[C@@H](C(=O)O)[C@H]21,> 10000,
Cc1ccc([C@@H](C)OC[C@H](O)CNC(C)(C)CCCc2ccccc2)c2c1O[C@@H]1[C@@H](C(=O)O)[C@H]21,28.4,
CSc1ccc(CC(C)(C)NC[C@@H](O)CO[C@H](C)c2ccc(C)c3c2[C@@H]2[C@H](O3)[C@H]2C(=O)O)cc1,39.3,
Cc1ccc([C@@H](C)OC[C@H](O)CNC(C)(C)Cc2ccc3ncccc3c2)c2c1O[C@@H]1[C@@H](C(=O)O)[C@H]21,457,
Cc1ccc(CC(C)(C)NC[C@@H](O)CO[C@H](C)c2ccc(C)c3c2[C@@H]2[C@H](O3)[C@H]2C(=O)O)cc1C,17.7,
Cc1ccc([C@@H](C)OC[C@H](O)CNC(C)(C)Cc2ccc3sccc3c2)c2c1O[C@@H]1[C@@H](C(=O)O)[C@H]21,9.62,
